Source: publication PMC4913735, “Non‐glycosidic compounds can stimulate both human and mouse iNKT cells” (European Journal of Immunology, 2016)

Tests used:
[1] = system: OVA‐specific CD8+ T cells; experiment: OVA‐specific CD8+ T‐cell response after OVA plus lipid i.v. (H‐2Kb/OVA257–264 tetramer); type: in vivo, mice
Protocol: In order to assess the downstream effect of treatment with low concentrations of lipid in vivo, mice were injected with the model antigen OVA together with two different doses of ThrCer 6 and α‐GalCer. Seven days later, OVA‐specific CD8^+ T cells were detected in the blood by H‐2 K^b/OVA257–264 tetramer staining of CD8^+ T cells.
(A and B) Mice were given 400 μg OVA together with i.v. injection of vehicle or 10 or 750 ng of either α‐GalCer or ThrCer 6. OVA‐specific CD8^+ T cells were enumerated in the blood using tetrameric H‐2K^b/OVA257–264 flow cytometry at (A) day 7 and at (B) day 12. Each square or circle represents the data for a single mouse (n = 4–6/group). Data shown as mean ± SEM and are representative of three independent experiments. **p = 0.0012, *p = 0.0114; Student's t‐test.
Mice were bled on day 7 post immunization of lipids and peripheral blood lymphocytes (PBL) stained with tetrameric H‐2 K^b/OVA257–264 peptide complexes, as previously described 27. A representative tetramer staining is shown in Supporting Information Figure 4.

iNKT hybridoma DN32.D3 = experiment: Lipid‐pulsed, washed BMDC stimulation of iNKT hybridoma DN32.D3 (IL‐2); type: cell-based, mouse; settings: 10 and 1 ng agonist; up to 24 h after wash; compared with α‐GalCer
Protocol: The difference between the functional activity of ThrCer 6 and α‐GalCer, particularly noticeable at low concentrations, may be accounted for by differences in their bioavailability. To address this possibility, bone marrow (BM) derived DC were incubated with a range of different iNKT‐cell agonists at different concentrations overnight, then washed and incubated with fresh media for increasing lengths of time. Lipid‐pulsed DC were then used to stimulate the iNKT‐hybridoma DN32.D3 (Fig. 6A). […] The difference between the ThrCer 6 and ThrCer 7 analogs and α‐GalCer started to be evident as early as 3 h after lipid‐pulsed DC were washed (Fig. 6A).
Figure 6 Enhanced bioavailability of ThrCer 6 as compared to ThrCer and α‐GalCer. (A) Mouse BMDCs were pulsed for 6 h with 100, 10, or 1 ng/mL of indicated iNKT‐cell agonists. […] Diminished bioavailability is expressed as a percentage of the maximum DN32.D3 activation by each iNKT‐cell agonist. […] (B) IL‐2 in the supernatant from coculture of DN32.D3 with CD11c^+ cells isolated after 64 h was determined by ELISA. […] Significance was calculated between α‐GalCer and ThrCer 6. *p < 0.05, **p < 0.01, ***p < 0.001, ****p < 0.0001; Student's t‐test.
Levels of iNKT‐cell agonists, presented by CD1d on the surface of cells, were assessed by the amount of IL‐2 secreted by iNKT hybridoma DN32.D3 coincubated with the presenting cells for 17–24 h. […]

SMILES: CCCCCCCCCCCCCCCCCCCCCCCCCC(=O)N[C@@H](CO[C@H]1CC[C@H](O)[C@H](O)[C@H]1O)[C@H](O)[C@H](O)CCCCCCCCCCCCCC [ThrCer 6]
- Frequency of OVA‐specific CD8+ T cells, 10 ng lipid ([1]; 10 ng i.v. with 400 μg OVA, day 7, compared with 10 ng α‐GalCer): statistically significant higher frequency
- Frequency of OVA‐specific CD8+ T cells, 10 ng lipid, day 12 ([1]; 10 ng i.v. with OVA, day 12, higher frequency than α‐GalCer): persisted at day 12
- Activation of DN32.D3 by lipid‐pulsed, washed BMDC (iNKT hybridoma DN32.D3): enhanced ability to activate DN32.D3
